Measured values taken from PubChem BioAssay AID1745844 (Carcinogenic Potency Database (CPDB), 2022).
Active and inactive are the calls of the source. How the calls were made is not given here.

System: rodent lifetime carcinogenesis bioassay, tumor incidence TD50
Assay: chronic cancer bioassays in animals – CPDB, compiled studies (AID 1745844)

Question: Which carcinogen call (mouse, strain Charles River CD1, females, in feed, site: any site (literature study), lesion: benign tumor, dosed 78 weeks, study length 78 weeks) does the source give for `CCc1cccc2c3c([nH]c12)C(CC)(CC(=O)O)OCC3` (stereo not given) here?
Answer: negative (inactive)

Question: And the TD50 (mouse, strain Charles River CD1, females, in feed, site: any site (literature study), lesion: malignant tumor, dosed 78 weeks, study length 78 weeks)?
Answer: 336 mg/kg/day (inactive)

Question: What about the carcinogen call (mouse, strain Charles River CD1, females, in feed, site: any site (literature study), lesion: several types, types named in the paper, dosed 78 weeks, study length 78 weeks) of the same compound?
Answer: negative (inactive)

Question: What about the carcinogen call (mouse, strain Charles River CD1, females, in feed, site: liver, lesion: hepatocellular adenoma, dosed 78 weeks, study length 78 weeks) of the same compound?
Answer: negative (inactive)

Question: And the carcinogen call (mouse, strain Charles River CD1, females, in feed, site: lung, lesion: alveolar/bronchiolar carcinoma, dosed 78 weeks, study length 78 weeks)?
Answer: negative (inactive)

Question: What about the carcinogen call (mouse, strain Charles River CD1, males, in feed, site: any site (literature study), lesion: benign tumor, dosed 78 weeks, study length 78 weeks) of the same compound?
Answer: negative (inactive)

Question: And the carcinogen call (mouse, strain Charles River CD1, males, in feed, site: any site (literature study), lesion: malignant tumor, dosed 78 weeks, study length 78 weeks)?
Answer: negative (inactive)

Question: What about the carcinogen call (mouse, strain Charles River CD1, males, in feed, site: any site (literature study), lesion: several types, types named in the paper, dosed 78 weeks, study length 78 weeks) of the same compound?
Answer: negative (inactive)

Question: What about the carcinogen call (mouse, strain Charles River CD1, males, in feed, site: liver, lesion: hepatocellular adenoma, dosed 78 weeks, study length 78 weeks) of the same compound?
Answer: negative (inactive)

Question: What about the carcinogen call (mouse, strain Charles River CD1, males, in feed, site: liver, lesion: hepatocellular carcinoma, dosed 78 weeks, study length 78 weeks) of the same compound?
Answer: negative (inactive)

Question: And the carcinogen call (rat, strain Charles River CD (Sprague-Dawley), females, in feed, site: any site (literature study), lesion: benign tumor, dosed 104 weeks, study length 104 weeks)?
Answer: negative (inactive)

Question: And the carcinogen call (rat, strain Charles River CD (Sprague-Dawley), females, in feed, site: any site (literature study), lesion: malignant tumor, dosed 104 weeks, study length 104 weeks)?
Answer: negative (inactive)

Question: And the carcinogen call (rat, strain Charles River CD (Sprague-Dawley), females, in feed, site: any site (literature study), lesion: several types, types named in the paper, dosed 104 weeks, study length 104 weeks)?
Answer: negative (inactive)

Question: And the carcinogen call (rat, strain Charles River CD (Sprague-Dawley), females, in feed, site: liver, lesion: hepatocellular carcinoma, dosed 104 weeks, study length 104 weeks)?
Answer: negative (inactive)

Question: And the TD50 (rat, strain Charles River CD (Sprague-Dawley), females, in feed, site: liver, lesion: neoplastic nodule, dosed 104 weeks, study length 104 weeks)?
Answer: 1010 mg/kg/day (inactive)

Question: And the carcinogen call (rat, strain Charles River CD (Sprague-Dawley), males, in feed, site: any site (literature study), lesion: benign tumor, dosed 104 weeks, study length 104 weeks)?
Answer: negative (inactive)

Question: What about the carcinogen call (rat, strain Charles River CD (Sprague-Dawley), males, in feed, site: any site (literature study), lesion: malignant tumor, dosed 104 weeks, study length 104 weeks) of the same compound?
Answer: negative (inactive)

Question: And the carcinogen call (rat, strain Charles River CD (Sprague-Dawley), males, in feed, site: any site (literature study), lesion: several types, types named in the paper, dosed 104 weeks, study length 104 weeks)?
Answer: negative (inactive)

Question: And the carcinogen call (rat, strain Charles River CD (Sprague-Dawley), males, in feed, site: liver, lesion: hepatocellular carcinoma, dosed 104 weeks, study length 104 weeks)?
Answer: negative (inactive)

Question: And the TD50 (rat, strain Charles River CD (Sprague-Dawley), males, in feed, site: liver, lesion: neoplastic nodule, dosed 104 weeks, study length 104 weeks)?
Answer: 1400 mg/kg/day (inactive)

Question: `CCCCCCCCCCCCN=C(N)N` was tested. Which carcinogen call (mouse, strain B6AKF1, females, oral dosing, site: any site (literature study), lesion: several types, types named in the paper, dosed 76 weeks, study length 76 weeks) did it give?
Answer: negative (inactive)

Question: And the carcinogen call (mouse, strain B6AKF1, females, oral dosing, site: liver, lesion: hepatoma, dosed 76 weeks, study length 76 weeks)?
Answer: negative (inactive)

Question: What about the carcinogen call (mouse, strain B6AKF1, females, oral dosing, site: lung, lesion: adenoma, dosed 76 weeks, study length 76 weeks) of the same compound?
Answer: negative (inactive)

Question: And the TD50 (mouse, strain B6AKF1, males, oral dosing, site: any site (literature study), lesion: several types, types named in the paper, dosed 76 weeks, study length 76 weeks)?
Answer: 149 mg/kg/day (inactive)

Question: And the carcinogen call (mouse, strain B6AKF1, males, oral dosing, site: liver, lesion: hepatoma, dosed 76 weeks, study length 76 weeks)?
Answer: negative (inactive)

Question: And the TD50 (mouse, strain B6AKF1, males, oral dosing, site: lung, lesion: several types, types named in the paper, dosed 76 weeks, study length 76 weeks)?
Answer: 41.9 mg/kg/day (inactive)

Question: What about the TD50 (mouse, strain B6C3F1, females, oral dosing, site: any site (literature study), lesion: several types, types named in the paper, dosed 76 weeks, study length 76 weeks) of the same compound?
Answer: 54.7 mg/kg/day (inactive)

Question: And the TD50 (mouse, strain B6C3F1, females, oral dosing, site: liver, lesion: hepatoma, dosed 76 weeks, study length 76 weeks)?
Answer: 54.7 mg/kg/day (inactive)

Question: And the carcinogen call (mouse, strain B6C3F1, females, oral dosing, site: lung, lesion: several types, types named in the paper, dosed 76 weeks, study length 76 weeks)?
Answer: negative (inactive)

Question: And the TD50 (mouse, strain B6C3F1, males, oral dosing, site: any site (literature study), lesion: several types, types named in the paper, dosed 76 weeks, study length 76 weeks)?
Answer: 10.8 mg/kg/day (inactive)

Question: What about the TD50 (mouse, strain B6C3F1, males, oral dosing, site: liver, lesion: hepatoma, dosed 76 weeks, study length 76 weeks) of the same compound?
Answer: 19.4 mg/kg/day (inactive)

Question: What about the TD50 (mouse, strain B6C3F1, males, oral dosing, site: lung, lesion: adenoma, dosed 76 weeks, study length 76 weeks) of the same compound?
Answer: 30.1 mg/kg/day (inactive)

Question: Which TD50 (mouse, strain (C3H x RIII)F1 (MTV+), females, in feed, site: mammary tissue, wider than the gland, lesion: one or several types, types not named, dosed 104 weeks, study length 104 weeks) does the source give for `C#C[C@]1(C(C)=O)CC[C@H]2[C@@H]3CCC4=C[C@@H](C(C)=O)CC[C@@H]4[C@H]3CC[C@@]21C` (tested in a mixture with another compound) here?
Answer: 0.858 mg/kg/day

Question: And the TD50 (mouse, strain (C3H x RIII)F1 (MTV+), males, in feed, site: mammary tissue, wider than the gland, lesion: one or several types, types not named, dosed 104 weeks, study length 104 weeks)?
Answer: 0.3 mg/kg/day

Question: `COc1cc2c(c3c1c(=O)c1ccccc1n3C)C=CC(C)(C)O2` was tested. Which TD50 (mouse, strain B6C3F1, females, i.p., site: liver, lesion: hepatocellular adenoma + hepatocellular carcinoma + neoplastic nodule, dosed 48 weeks, study length 78 weeks) did it give?
Answer: 2.46 mg/kg/day

Question: What about the TD50 (mouse, strain B6C3F1, females, i.p., site: lung, lesion: alveolar/bronchiolar adenoma + alveolar/bronchiolar carcinoma, dosed 48 weeks, study length 78 weeks) of the same compound?
Answer: 2.46 mg/kg/day

Question: And the TD50 (rat, strain Sprague-Dawley, females, i.p., site: any site (literature study), lesion: several types, types named in the paper, dosed 52 weeks, study length 80 weeks)?
Answer: 0.568 mg/kg/day

Question: And the TD50 (rat, strain Sprague-Dawley, females, i.p., site: liver, lesion: hepatocellular adenoma + hepatocellular carcinoma + neoplastic nodule, dosed 52 weeks, study length 80 weeks)?
Answer: 8.75 mg/kg/day

Question: What about the TD50 (rat, strain Sprague-Dawley, females, i.p., site: mammary gland + peritoneum, lesion: adenocarcinoma, NOS + cystadenocarcinoma, NOS + cystadenoma, NOS + fibroadenoma + papillary adenocarcinoma + fibrosarcoma + mesothel, dosed 52 weeks, study length 80 weeks) of the same compound?
Answer: 0.873 mg/kg/day

Question: And the TD50 (rat, strain Sprague-Dawley, females, i.p., site: mammary gland, lesion: adenocarcinoma, NOS + cystadenocarcinoma, NOS + cystadenoma, NOS + fibroadenoma + papillary adenocarcinoma, dosed 52 weeks, study length 80 weeks)?
Answer: 0.395 mg/kg/day

Question: And the TD50 (rat, strain Sprague-Dawley, females, i.p., site: mammary gland, lesion: fibroadenoma, dosed 52 weeks, study length 80 weeks)?
Answer: 0.455 mg/kg/day

Question: What about the TD50 (rat, strain Sprague-Dawley, females, i.p., site: peritoneum, lesion: fibrosarcoma + mesothelioma, malignant + sarcoma, NOS, dosed 52 weeks, study length 80 weeks) of the same compound?
Answer: 5.86 mg/kg/day

Question: And the TD50 (rat, strain Sprague-Dawley, females, i.p., site: peritoneum, lesion: sarcoma, NOS, dosed 52 weeks, study length 80 weeks)?
Answer: 11.4 mg/kg/day

Question: What about the TD50 (rat, strain Sprague-Dawley, males, i.p., site: adrenal gland, lesion: cortical adenoma, dosed 51 weeks, study length 80 weeks) of the same compound?
Answer: 1.85 mg/kg/day

Question: And the TD50 (rat, strain Sprague-Dawley, males, i.p., site: all sites + bone + peritoneum + vertebra, lesion: osteosarcoma + fibrosarcoma + mesothelioma, NOS + mesothelioma, malignant + sarcoma, NOS, dosed 51 weeks, study length 80 weeks)?
Answer: 0.497 mg/kg/day

Question: What about the TD50 (rat, strain Sprague-Dawley, males, i.p., site: all sites, lesion: osteosarcoma, dosed 51 weeks, study length 80 weeks) of the same compound?
Answer: 0.698 mg/kg/day

Question: And the TD50 (rat, strain Sprague-Dawley, males, i.p., site: any site (literature study), lesion: several types, types named in the paper, dosed 51 weeks, study length 80 weeks)?
Answer: 0.227 mg/kg/day

Question: And the TD50 (rat, strain Sprague-Dawley, males, i.p., site: bone + vertebra, lesion: osteosarcoma, dosed 51 weeks, study length 80 weeks)?
Answer: 1.03 mg/kg/day

Question: What about the TD50 (rat, strain Sprague-Dawley, males, i.p., site: liver, lesion: hepatocellular adenoma + hepatocellular carcinoma + neoplastic nodule, dosed 51 weeks, study length 80 weeks) of the same compound?
Answer: 2.11 mg/kg/day

Question: What about the TD50 (rat, strain Sprague-Dawley, males, i.p., site: peritoneum, lesion: fibrosarcoma + mesothelioma, NOS + mesothelioma, malignant + sarcoma, NOS, dosed 51 weeks, study length 80 weeks) of the same compound?
Answer: 1.49 mg/kg/day
